Assay results from patent US11396517B1, “Exo-aza spiro inhibitors of menin-MLL interaction” (Janssen Pharmaceutica NV, priority 2017, dated 2022).
Where two headings read alike, the source gives them in different places.

Columns and labels:
menin = target: T1, menin (Homo sapiens, UniProt O00255, T541A); test: Menin/MLL homogenous time-resolved fluorescence (HTRF) assay; type: binding
T1 construct: Menin (a.a. 1-610-6×his tag)
T1 sequence (O00255 with tags, fused parts or gaps T541A): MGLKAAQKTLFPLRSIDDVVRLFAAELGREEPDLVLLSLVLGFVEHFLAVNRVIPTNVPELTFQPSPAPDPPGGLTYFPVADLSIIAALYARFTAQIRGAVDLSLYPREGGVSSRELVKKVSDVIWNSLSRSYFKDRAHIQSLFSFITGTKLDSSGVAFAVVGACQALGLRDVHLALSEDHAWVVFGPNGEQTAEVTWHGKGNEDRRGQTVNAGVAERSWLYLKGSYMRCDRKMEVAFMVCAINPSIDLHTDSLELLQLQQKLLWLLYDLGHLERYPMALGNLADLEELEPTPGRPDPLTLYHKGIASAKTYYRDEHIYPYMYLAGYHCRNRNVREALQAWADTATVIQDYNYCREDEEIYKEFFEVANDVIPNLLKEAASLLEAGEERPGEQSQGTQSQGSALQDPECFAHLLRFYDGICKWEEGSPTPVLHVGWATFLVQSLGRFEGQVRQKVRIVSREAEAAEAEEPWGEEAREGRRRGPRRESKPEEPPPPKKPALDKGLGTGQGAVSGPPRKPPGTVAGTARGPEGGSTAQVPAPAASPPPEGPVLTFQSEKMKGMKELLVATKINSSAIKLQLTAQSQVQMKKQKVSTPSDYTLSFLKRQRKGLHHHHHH
Method in brief: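 Displacement of 75 nM FITC-MBM1 from terbium-cryptate-labeled His-tagged menin 1-610 ([…]) was read as the 520/490 nm HTRF ratio. Compound (11-point, 3-fold series) got 5 min with menin before peptide, then 15 min at ambient; 0.5% DMSO, Tris pH 7.5.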

MV-4-11 [1] = test: Proliferation assay A (spheroid assay) MV-4-11; type: cell-based, human; conditions: MV-4-11 cells, 8 d, AUC of confluence against time, absolute IC50, read-out: (3a) Spheroid assay MV-4-11 (IC50(μM)) Assay A
Method in brief: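 Spheroid growth in ultra-low-attachment round-bottom wells (1,500 MV-4-11, 300 MOLM14 or 750 K562 cells), compound titration at 0.3% DMSO, 8 d at 37° C. Confluence imaged every 4 h; AUC from t=0 baseline expressed as % of DMSO control and fitted for absolute IC50.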

K562 [2] = test: Proliferation assay A (spheroid assay) K562 control cell line; type: cell-based; conditions: Homo sapiens, 192 h; K562 cells (MLL wildtype control), 8 d, AUC of confluence against time; read-out: (3a) Spheroid assay K562 Assay A
Method: (§1) 3a) Proliferation Assay A
(§2) The anti-proliferative effect of menin/MLL protein/protein interaction inhibitor test compounds was assessed in human leukemia cell lines. The cell lines MV-4-11 and MOLM14 harbor MILL translocations and express the MILL fusion proteins MLL-AF4 and MLL-AF9, respectively, as well as the wildtype protein from the second allele. […] K562 was used as a control cell line containing two MLL wildtype alleles in order to exclude compounds that display general cytotoxic effects.
MV-4-11 and MOLM14 were cultured in RPMI-1640 (Sigma Aldrich) supplemented with 10% fetal bovine serum (HyClone), 2 mM L-glutamine (Sigma Aldrich) and 50 μg/ml gentamycin (Gibco). […]
In order to assess the anti-proliferative effects, 1,500 MV-4-11, 300 MOLM14 or 750 K562 cells were seeded in 200 μl media per well in 96-well round bottom, ultra-low attachment plates (Costar, catalogue number 7007). […] Spheroid like growth was monitored in real-time by live-cell imaging (IncuCyteZOOM, Essenbio, 4× objective) acquiring one image every four hours for 8 d. Confluence (%) as a measure of spheroid size was determined using an integrated analysis tool.
In order to determine the cumulative effect of the test compounds over time, the area under the curve (AUC) in a plot of confluence against time was calculated. […]

MOLM14 [3] = test: Proliferation assay A (spheroid assay) MOLM14; type: cell-based, human; conditions: MOLM14 cells, 8 d, AUC of confluence against time, absolute IC50, read-out: (3a) Spheroid assay MOLM14 (IC50(μM)) Assay A
Method: as §1, §2
(§3) MV-4-11 and MOLM14 were cultured in RPMI-1640 (Sigma Aldrich) supplemented with 10% fetal bovine serum (HyClone), 2 mM L-glutamine (Sigma Aldrich) and 50 μg/ml gentamycin (Gibco). K562 were propagated in RPMI-1640 (Sigma Aldrich) supplemented with 20% fetal bovine serum (HyClone), 2 mM L-glutamine (Sigma Aldrich) and 50 μg/ml gentamycin (Gibco).
(§4) In order to assess the anti-proliferative effects, 1,500 MV-4-11, 300 MOLM14 or 750 K562 cells were seeded in 200 μl media per well in 96-well round bottom, ultra-low attachment plates (Costar, catalogue number 7007). Cell seeding numbers were chosen based on growth curves to ensure linear growth throughout the experiment. Test compounds were added at different concentrations and the DMSO content was normalized to 0.3%. Cells were incubated for 8 d at 37° C. and 5% CO2. Spheroid like growth was monitored in real-time by live-cell imaging (IncuCyteZOOM, Essenbio, 4× objective) acquiring one image every four hours for 8 d. Confluence (%) as a measure of spheroid size was determined using an integrated analysis tool.
In order to determine the cumulative effect of the test compounds over time, the area under the curve (AUC) in a plot of confluence against time was calculated. Confluence at the beginning of the experiment (t=0) was used as baseline for the AUC calculation.
Absolute IC50 values were calculated according to the following procedure: % Control=(AUC sample/AUC control)*100
AUC control mean AUC of control values (cells without compound/DMSO as vehicle control)
A non-linear curve fit was applied using the least squares (ordinary) fit method to the plot of % control versus compound concentration. Based on this, the absolute IC50 value (half maximal inhibitory concentration of the test compound causing an anti-proliferative effect of 50% relative to the vehicle control) was calculated.

MV-4-11 [4] = test: Proliferation assay B (spheroid assay) MV-4-11; type: cell-based, human; conditions: MV-4-11 cells, confluence at day 8, absolute IC50, read-out: (3b) Spheroid assay MV-4--11 (IC50(μM)) Assay B
Method in brief: (§5)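 IC50 derived from % effect on day-8 imaged confluence, scaled between DMSO-treated cells (high) and 1 μM staurosporine (low), using a variable-slope fit constrained 0-100%. Cells seeded as spheroids in ultra-low-attachment plates and exposed to compound for 8 days, 0.3% DMSO.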

MOLM14 [5] = test: Proliferation assay B (spheroid assay) MOLM14; type: cell-based, human; conditions: MOLM14 cells, confluence at day 8, absolute IC50, read-out: (3b) Spheroid assay MOLM14 (IC50(μM)) Assay B
Method in brief: as §5

K562 [6] = test: Proliferation assay B (spheroid assay) K562 control cell line; type: cell-based; conditions: Homo sapiens, 192 h; K562 cells (MLL wildtype control), confluence at day 8; read-out: (3b) Spheroid assay K562 Assay B
Method: 3b) Proliferation Assay B
as §2, §3
as §4, with “MOLM14 cells” for “MOLM14”, “measured” for “monitored”, “images at day 8.” for “one image every four hours for 8 d.”
In order to determine the effect of the test compounds over time, the confluence in each well as a measure of spheroid size, was calculated. Confluence […] at the beginning of the experiment (t=0) was used as baseline for the calculation.
Absolute IC50 values were calculated as percent change in confluence as follows:
LC=Low Control: cells treated with 1 μM of the cytotoxic agent staurosporin
HC=High Control: Mean confluence (%) (DMSO treated cells) % Effect=100−(100*(Sample−LC)/(HC−LC))
To determine the IC50 a curve is fitted to the plot of % Effect vs Log 10 compound concentration using a sigmoidal fit with a variable slope and fixing the maximum to 100% and the minimum to 0%.

[7] = location 1, read-out: (2) location 1 Menin HTRF assay (IC50 (nM))
[8] = location 2, read-out: (2) location 2 Menin HTRF assay (IC50 (nM))

Structure (SMILES)	IC50 (MV-4-11 [4]; Homo sapiens, MV4-11, 192 h) [µM]	IC50 (MOLM14 [5]; Homo sapiens, MOLM-14, 192 h) [µM]	IC50 (menin; [8]) [nM]	IC50 (K562 [6]) [nM]	also measured
FC(F)(F)Cc1cc2c(N3CC4(CC[C@@H](NCc5ccccc5)C4)C3)ncnc2s1 (single isomer, unassigned) [Compound 47]					IC50 (menin; [7]): 15.5 nM; IC50 (MV-4-11 [1]; Homo sapiens, MV4-11, 192 h): 0.14 µM; IC50 (K562 [2]): > 15000 nM; IC50 (MOLM14 [3]; Homo sapiens, MOLM-14, 192 h): 1.02 µM
CNC(=O)c1ccc(NC2CC3(CCN(c4ncnc5sc(CC(F)(F)F)cc45)C3)C2)cc1OCCN(C)C (single isomer, unassigned) [Compound 77]	0.19	0.63	1.8	7850	
O=c1[nH]c2ccc(CNC3CCC4(C3)CN(c3ncnc5sc(CC(F)(F)F)cc35)C4)cc2[nH]1 (single isomer, unassigned) [Compound 109]		2.26	1.6		IC50 (MV-4-11 [1]): 0.24 µM; IC50 (MOLM14 [3]): 3.24 µM
CN1CC=C(c2cc(NC3CC4(CCN(c5ncnc6sc(CC(F)(F)F)cc56)C4)C3)ccc2C(C)(C#N)C#N)CC1 (single isomer, unassigned) [Compound 246]			206	3970	IC50 (MV-4-11 [4]): 0.26 µM; IC50 (MOLM14 [5]): 0.13 µM
N#CCc1ccc(NC2CC3(CCN(c4ncnc5sc(CC(F)(F)F)cc45)C3)C2)cc1 (single isomer, unassigned) [Compound 307]		2.44	3.1		IC50 (MV-4-11 [1]): 1.05 µM; IC50 (MOLM14 [3]): 3.38 µM
FC(F)(F)Cc1cc2c(N3CCC4(CC(NCc5ccccc5)C4)C3)ncnc2s1 (stereo not drawn) [Compound 48]					IC50 (menin; [7]): 12 nM; IC50 (MV-4-11 [1]; Homo sapiens, MV4-11, 192 h): 0.35 µM; IC50 (K562 [2]): > 15000 nM; IC50 (MOLM14 [3]; Homo sapiens, MOLM-14, 192 h): 1.58 µM
FC(F)(F)Cc1cc2c(N3CCC4(CC(Nc5ccc(-c6nnc[nH]6)cc5)C4)C3)ncnc2s1 (stereo not drawn) [Compound 370]	0.35	1.57		7300	
O=C(NCC(F)(F)F)c1ccc(NC2CC3(CCN(c4ncnc5sc(CC(F)(F)F)cc45)C3)C2)cc1 (stereo not drawn) [Compound 371]	0.08	0.3		6480	
